Source: PubChem BioAssay (NCI)
“And” between values parts separate entries of the source, which are not always exact repeats. Identical values can stand only once.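 Dose response: 5 concentrations. Exposure: 48 h. Format: 96-well plates. Endpoint: linear interpolation; highest concentration if not reached. GI50 = concentration required for 50% inhibition of growth. TGI denotes the concentration required for complete inhibition of growth.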

Test system: MDA-MB-468 breast
Test: NCI tumour cell line growth inhibition, 48 h

SMILES	GI50	TGI
COc1cccc2c1ccc1nc3cccc(C(=O)N[C@H](C)CN(C)C)c3nc12	120 nM	485 nM
COc1ccc2c(c1)nnn1c3ncccc3c(N=O)c21	32.3 nM and 126 nM	–
O=C(Nc1ccncc1)C(=O)c1cn(Cc2ccc(Cl)cc2)c2ccccc12	27.1 nM	346 nM
CC(=O)C(=Cc1ccc(C=C(C(C)=O)C(C)=O)cc1)C(C)=O	1510 nM	3140 nM
CCn1cc(C(=O)N/N=C/c2ccccc2)c(=O)c2cc(F)c(N3CCNC(C)C3)c(F)c21 (stereo not drawn)	1620 nM	3120 nM
COc1cc2c(cc1O)CC[C@@H]1[C@@H]2CC[C@]2(C)[C@@H](OCCN(C)C)CC[C@@H]12	154 nM	531 nM
CN(C)c1ccc(-c2cc(-c3c[nH]c4ccccc34)nc(N)c2C#N)cc1	1970 nM	9220 nM
COC1=CC(c2ccc[nH]2)=N/C1=C\c1[nH]c(C)c(C(=O)CCCCC(=O)NC(C)(C)C)c1C	1520 nM	3580 nM
CCN(Cc1ccc(F)cc1)c1ccc(CO)c(F)c1	167 nM	461 nM
CCC1CN2C(=N1)c1ccccc1-c1cc(Cl)ccc12 (stereo not drawn)	2160 nM	6850 nM
C=CC1CN2CCC1CC2C(O)c1ccnc2ccc(OC)cc12 (stereo not drawn)	> 100000 nM	> 100000 nM
NC(=O)c1ccccc1Nc1ccc2nnc(-c3ccncc3)n2n1	1980 nM	7320 nM
Cc1cc(O)c(C2=NN(c3ccc(S(N)(=O)=O)cc3)C(c3ccccc3Cl)C2)cc1Cl (stereo not drawn)	2220 nM	4740 nM
CNC(=O)c1cccc2cc(Oc3ccnc4cc(OCC5(N)CC5)c(OC)cc34)ccc12	7410 nM	22600 nM
CCn1cnc(C[C@H](NC(=O)[C@@H](NC(=O)Nc2cc(C(F)(F)F)cc(C(F)(F)F)c2)C(C)C)C(=O)OC)c1	1740 nM	3570 nM
O=C1NC(=C(Cl)Cl)/C(=N/S(=O)(=O)N2CCCCC2CC2(C(F)(F)F)N=N2)N1 (stereo not drawn)	1160 nM	3910 nM
O=C(Nc1cccc(-n2cc(-c3ccncc3)c(-c3cc(O)cc(Cl)c3)n2)c1)Nc1ccc(Cl)c(C(F)(F)F)c1	2080 nM	8420 nM
COc1cccc(-n2nc(C)c3c(N/N=C(\C)c4ccncc4)ncnc32)c1	2670 nM	> 25000 nM
Cc1ccc(-c2nc(C#N)c(S(=O)(=O)n3nc(C)cc3N)o2)cc1	2720 nM	7960 nM
NC(=O)c1ccc(I)c(N=O)c1	21300 nM	61300 nM
COc1ccc(-c2cc(-c3cccc4ccccc34)n3c(n2)nc2ccccc23)cc1OC	2700 nM	> 100000 nM
O=C1C(N2CC2)=C(N2CC2)C(=O)C(N2CC2)=C1N1CC1	395 nM	2440 nM
CCCCC[C@H]1C/C=C2/C(=O)C=C[C@@H]2C/C=C\CCCC(=O)O[C@@H](CCCCC)C/C=C2/C(=O)C=C[C@@H]2C/C=C\CCCC(=O)O1	371 nM	1010 nM
CCC(C)[C@H]1O[C@]2(C=C[C@@H]1C)C[C@@H]1C[C@@H](C/C=C(\C)[C@@H](OC3C[C@H](OC)C(O[C@H]4C[C@H](OC)[C@@H](O)[C@H](C)O4)[C@H](C)O3)[C@@H](C)/C=C/C=C3\CO[C@@H]4[C@H](O)C(C)=C[C@@H](C(=O)O1)[C@]34O)O2 (stereo partly drawn)	1030 nM	4140 nM
CC1(N)CCN(c2cccnc2NC(=O)c2nc(-c3ncccc3C(F)(F)F)cnc2N)CC1	14100 nM	52800 nM
COc1cc(Nc2c(C#N)cnc3cc(OCCCN4CCN(C)CC4)c(OC)cc23)c(Cl)cc1Cl	1630 nM	4140 nM
COc1ccc(-c2nc(/C=N/Nc3cc(C)nc4ccc(Cl)cc34)c(C)o2)cc1	1930 nM	3710 nM
